Experimental data reported in patent US8193328B2, “Identification of modulators of serine protease inhibitor Kazal and their use as anti-cancer and anti-viral agents” (Philadelphia Health & Education Corporation, priority 2005, dated 2012).
Where a SMILES comes first, the peptide text is derived from it. The star is where a group is joined. Cbz = O=C(OCc1ccccc1)*; CH2F = FC*

Columns and labels:
[1] = system: HCV replication; assay: Northern blot of HCV RNA in HCV replicon cells after antiviral treatment; type: cell-based, Hepatitis C virus; details: 10^5 IU/ml overnight
Method: (§1) FIG. 7A-7B. SPIK in the HCV expressing cells. SPIK RNA was detected in the cells with/without HCV replicon as before. HCV RNA was defined by the hybridization of membrane with radio-labeled probe specified HCV.
(§2) FIG. 7B—HCV replicon cells were incubated with HCV polymerase inhibitor 888 (2 mM) 2 days (Lines 3 & 4 duplicate) and 10^5 IU/ml interferon-a overnight (Lines 5 & 6 duplicate) or left untreated (Line 1 & 2 duplicate). The suppressions of HCV RNA and SPIK RNA then were analyzed by Northern blot as before. The smear detected by HCV probe under the band of HCV RNA probably was the replication form of HCV.
(§3) Over-expression of SPIK RNA in G54 cells can be abrogated by inhibition of HCV replication. Treatment of HCV replicon cells with either 2 mM of the HCV polymerase inhibitor 888 for two days or 10^5 IU/ml interferon-a overnight has reduced HCV replication by approximately 90% [FIG. 7B, lane 3-6]. This is consistent with previous reports of these antiviral agents (55, 56).

[2] = system: SPIK RNA; assay: Northern blot of SPIK RNA in G54 HCV replicon cells after antiviral treatment; type: cell-based, human; details: 10^5 IU/ml overnight
Method: as §1, §2, §3

[3] = system: caspase 3; assay: Caspase 3 activity in S2-3 and Huh7T cells (Biovision kit); type: cell-based, human; details: 40 hours treatment
Method: FIG. 5B. The activation of caspase 3 (CDCA) in S2-3 cells treated with etoposide but not BFA/CHX/Z-VAD. The S2-3 cell and its parental cell Huh7T were either treated with SPDCA inducer BFA/CHX/ZVAD or CDCA inducer etoposide. The caspase activity was determined after […] treatment by Caspase 3 detection kit (Biovision, Mountain View, Calif.).
The same level of apoptosis induced by etoposide in S2-3 cell and Huh7T cell was confirmed by the examination of caspase 3 activity in these cells. After 40 hours treatment, all cells were lysed in […] lysis buffer. […] lysate of each sample was analyzed for caspase 3 activity test using caspase 3 detected kits [Biovision, Mountain View, Calif.]. […] Additionally, the activity of caspase3 was not increased in the cells, in which SPDCA was induced by BFA/CHX, even by double doses [FIG. 5B, B/C/ZX2].

[4] = system: G54 cells; assay: CDCA induced by etoposide in G54 cells; type: cell-based, human; details: data not shown
Method: (§4) To study the influence of HCV replication upon SPDCA, G54 and Huh7T cells (its parent cell) were seeded in a 60 mm dish. SPDCA was induced by BFA/CHX/Z-VAD. […] The insensitivity of HCV replicon cell to SPDCA was also seen subsequently by annexin staining. Compared to the parental cells, much fewer HCV expressing cells were stained by annexin after being treated with SPDCA inducers BFA/CHX/Z-VAD [FIG. 8C, Annexin]. DNA fragmentation study also support that the HCV expressing cells were more resistant to apoptosis. 70 hours treatment of BFA/CHX/Z-VAD obviously triggered the DNA fragmentation in Huh7T cell, but not in G54 cells [FIG. 8D]. […] In contrast, both HepG2.215 and G54 are sensitive to CDCA induced by etoposide [data not shown].

[5] = system: Huh7T cells; assay: Etoposide induced CDCA in Huh7T cells, annexin stain; type: cell-based, human; details: 400 μM etoposide, 40 hours, data not shown
Method: (§5) FIG. 5A. S2-3 and Huh7T cells were treated with CDCA inducer 400 μM etoposide. After 40 hours, the cells apoptosis was examined in microscope and stained with annexin.
(§6) 10^5 S2-3 and Huh7T cells were seeded in 60 mm dishes. When the cell reached 90% confluent, CDCA inducer etoposide was added. After 28-40 hours, the cell shrinkage, blebbing and detachment from culture was found in both cell lines. At the same time, the strong fluorescence stain by annexin was also observed in both cell lines [FIG. 5A]. The amount of apoptotic cells in two cell lines was very similar. Around 62% S2-3 cell was stained by annexin, while 58% of Huh7T cell was stained after 40 hours treatment [data not shown].

[6] = system: HepG2.215 cells; assay: CDCA induced by etoposide in HepG2.215 cells; type: cell-based, human; details: data not shown
Method: as §4

[7] = system: S2-3 cells; assay: Etoposide induced CDCA in S2-3 cells, annexin stain; type: cell-based, human; details: 400 μM etoposide, 40 hours, data not shown
Method: as §5, §6

interferon-a
reduction of HCV replication [1]: approximately 90%
SPIK level [2]: correspondingly decreased with HCV RNA

CC(NC(=O)C(NC(=O)OCc1ccccc1)C(C)C)C(=O)NC(CC(=O)O)C(=O)CF (stereo not drawn) [Z-VAD] (Cbz-Val-Ala-Asp-CH2F; configuration not given here)
caspase 3 activity [3]: kept unchanged

COc1cc([C@@H]2c3cc4c(cc3[C@@H](O[C@@H]3O[C@@H]5CO[C@@H](C)O[C@H]5[C@H](O)[C@H]3O)[C@H]3COC(=O)[C@H]23)OCO4)cc(OC)c1O [etoposide]
caspase 3 activity [3]: at the same level in both cells
sensitivity to CDCA [4]: sensitive
cells stained by annexin [5]: 58%
sensitivity to CDCA [6]: sensitive
cells stained by annexin [7]: Around 62%
